Here are results for one compound from patent US4916118A, “Pharmaceutical administration systems containing chemotactic peptides” (Board of Regents, The University of Texas System, priority 1987, dated 1990).

Assay [1] concerns mouse peritoneal macrophages. Kind of assay: In-vitro assay of macrophage mediated cytotoxicity ([125I]IdUrd radioactive release assay). It counts as cell-based. As for the experimental part:
FMLP was purchased from Sigma Chemical Co. The stock solution (10 mM) was made in methanol and stored at -70° before use. For free form use, the stock solution was diluted to concentrations between 10^-4 M and 10^-7 M with CMEM containing 5% FBS. […]
Macrophage mediated cytotoxicity was assessed by a radioactive release assay as described in Sone S. and Fidler I. J., Cell Immunology 57, 42 (1981). Target cells in exponential growth phase were incubated for 24 h in medium supplemented with [^125 I]IdUrd (0.2 μCi/ml; specific activity, 200 mCi/mmol; New England Nuclear, Boston, Mass.). The cells then were washed 3 times with warm HBSS to remove unbound radiolabel, harvested by a short trypsinization (0.25% Difco trypsin and 0.02% EDTA for 1 min at 37°), and resuspended in CMEM containing 5% FBS. Viable cells were plated into the wells containing macrophages to achieve a population density of 2500 macrophages and 250 tumor cells per sq mm (or an initial macrophage:target cell ratio of 10/1). At this population density, normal (untreated) macrophages are not cytotoxic to neoplastic cells. No significant differences were detected in the plating efficiency (binding) of [^125 I]IdUrd-labeled target cells to control or liposome-treated macrophage populations. Radiolabeled target cells also were plated alone as an additional control group. The macrophage-target cell cultures were refed with medium 24 h after the addition of the target cells to remove all nonplated cells and then were incubated for up to 3 days at 37°. At this time, the cultures were washed twice with HBSS to remove […], and the remaining viable, adherent cells were lysed with 0.1 ml of 0.1N NaOH. The lysate was absorbed in a cotton swab and placed directly into 10×75 mm tubes; radioactivity was measured in a gamma counter. […] The cytotoxic activity of the macrophages was calculated as follows: [formula] Experimental results were analyzed for their statistical significance by Student's 2-tailed t test.

Assay [2] has as its system mouse peritoneal macrophages. Described as above. It counts as cell-based. Particulars: for cpm +/- S.D.: 10^-8 M FMLP, radioactivity of remaining viable target tumor cells.

Take `CSCC[C@H](NC=O)C(=O)N[C@@H](CC(C)C)C(=O)N[C@@H](Cc1ccccc1)C(=O)O` [Free FMLP, N-formyl-L-methionyl-L-leucyl-L-phenylalanine]: the “cpm +/- S.D.” value in assay [1] (10^-4 M FMLP, Expt. I) was 2478 + 74 cpm; in assay [1] (10^-4 M FMLP, Expt. II), 2263 + 361 cpm; in assay [1] (10^-5 M FMLP, Expt. I), 2619 + 82 cpm; in assay [1] (10^-5 M FMLP, Expt. II), 2455 + 106 cpm; in assay [1] (10^-6 M FMLP, Expt. I), 2633 + 61 cpm; in assay [1] (10^-6 M FMLP, Expt. II) it was 2408 + 32 cpm. For the same compound, the “cpm +/- S.D.” value in assay [1] (10^-7 M FMLP, Expt. I) is given as 2559 + 109 cpm; in assay [1] (10^-7 M FMLP, Expt. II), 2298 + 178 cpm; in assay [2] (Expt. I), 2567 + 70 cpm; in assay [2] (Expt. II) it was 2441 + 32 cpm. For the same compound, the “activation of mouse macrophages to lyse target tumor cells” value in assay [2] (all FMLP concentrations (10^-8 to 10^-4 M), 72 hours of co-cultivation) is “ineffective in rendering macrophages tumoricidal”.
